Legend:
[1] = cited from earlier work
[2] = tested on: rabbit retinal ganglion cells; assay: Single cell recordings from axons of retinal ganglion cells stimulated by focal ejection of K+ (KCl) from a micropipette; type: cell-based
Description: Single cell recordings were made from the axons of rabbit retinal ganglion cells in vitro. Data was recorded and analyzed using Spike2 (Cambridge Electronic Design). The ganglion cells were stimulated over the optical receptive field with a multibarrel micropipette (7-barrel, FHC, Inc.) which contained various concentrations of KCl (0-30 mM in an osmotically balanced NaCl solution (˜300 mOsm). The micropipette solutions were ejected by using a mulitchannel pressure ejector (PM8000, MDI Systems). All solutions contained Azure B (0.5 mg/ml) to enable visualization of the solution being ejected. Pulse durations of 20-100 msecs were used.
Response is shown for a cell stimulated with a 20 msec pulse of 10 mM K^+, pressure of 40 p.s.i. and a volume of approximately 100 pL. […] A modest increase (10 mM) in K^+ concentration increases the spike count from 35 to 80 spikes. Further increases in concentration to 15 mM and 30 mM increases the spike rate to 240 and 272 spikes, respectively. […] The histograms are summed responses from 10 trials as indicated by the raster plot.
Data was collected from 5 cells and the total spike count was obtained from the PSTH. The spontaneous activity (control record) was subtracted, divided by the number of repetitions and the median is plotted. The error bars shown are the standard deviations normalized by the median.
The large secondary lobe in the potassium response may be due to the fluid flow pattern that may have stimulated adjacent cells. Overall receptive field size is […] for a light evoked response.

| SMILES | pKa [1] | overall receptive field size, potassium evoked response ([2]; 30 mM [K+]) | receptive field size, primary lobe, potassium evoked response ([2]; 30 mM [K+]) | increase in background K+ concentration sufficient to excite the firing of an action potential by retinal ganglion cells ([2]; rabbit retina, in vitro) | spike count (PSTH, summed responses from 10 trials) ([2]; representative cell, 10 mM K+, count without K+ increase 35) | spike count (PSTH, summed responses from 10 trials; given as spike rate) ([2]; representative cell, 15 mM K+) | spike count (PSTH, summed responses from 10 trials; given as spike rate) ([2]; representative cell, 30 mM K+) |
| --- | --- | --- | --- | --- | --- | --- | --- |
| O=C(O)[C@H](O)[C@@H](O)[C@H](O)[C@H](O)CO [Gluconic acid, gluconic acid] | ~3.6 | – | – | – | – | – | – |
| [K+] [K^+] | – | 400 µm | 100 µm | ~10 mM | 80 spikes | 240 spikes | 272 spikes |

Reference: patent publication US20060009805A1, “Neural stimulation device employing renewable chemical stimulation” (priority 2004, published 2006)
